# Reference: patent US20130035326A1 (AMBIT BIOSCIENCES CORPORATION, priority 2009, published 2013)
# pIC50, pKd: −log10 of the molar value.
# What was measured:
# FLT3 kinase = target: T1, FLT3 kinase (Homo sapiens, UniProt P36888); assay: Competition binding assay, FLT3 Kd
# T1 construct: made in house; host or cells: T7 phage display or HEK-293 cells
# T1 sequence (P36888 27-993): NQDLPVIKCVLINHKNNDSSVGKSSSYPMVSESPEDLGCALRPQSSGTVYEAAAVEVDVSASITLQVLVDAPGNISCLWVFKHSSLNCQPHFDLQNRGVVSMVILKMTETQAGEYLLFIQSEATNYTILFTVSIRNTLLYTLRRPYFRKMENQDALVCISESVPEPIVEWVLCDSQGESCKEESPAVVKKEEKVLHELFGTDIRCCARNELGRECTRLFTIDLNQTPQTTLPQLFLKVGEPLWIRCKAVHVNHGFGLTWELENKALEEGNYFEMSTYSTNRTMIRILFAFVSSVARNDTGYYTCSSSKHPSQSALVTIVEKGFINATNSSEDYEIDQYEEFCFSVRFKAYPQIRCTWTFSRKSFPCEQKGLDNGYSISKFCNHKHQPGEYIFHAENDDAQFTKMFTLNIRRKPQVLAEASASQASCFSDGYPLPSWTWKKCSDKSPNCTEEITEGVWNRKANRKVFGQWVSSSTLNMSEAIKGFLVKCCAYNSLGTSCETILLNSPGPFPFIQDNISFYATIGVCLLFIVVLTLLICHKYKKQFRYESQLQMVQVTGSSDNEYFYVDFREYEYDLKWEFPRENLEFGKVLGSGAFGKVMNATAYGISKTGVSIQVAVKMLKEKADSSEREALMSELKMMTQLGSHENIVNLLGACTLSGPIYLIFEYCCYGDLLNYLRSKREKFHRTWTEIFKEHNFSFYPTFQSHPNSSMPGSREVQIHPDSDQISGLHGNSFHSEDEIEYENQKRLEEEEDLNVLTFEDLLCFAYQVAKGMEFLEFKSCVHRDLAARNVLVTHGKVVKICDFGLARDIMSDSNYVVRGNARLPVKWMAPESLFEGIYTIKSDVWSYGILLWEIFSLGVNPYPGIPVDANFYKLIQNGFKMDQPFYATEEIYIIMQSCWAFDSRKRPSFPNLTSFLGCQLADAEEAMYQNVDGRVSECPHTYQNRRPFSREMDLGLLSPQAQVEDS
# Method in brief: (§1)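 In this bead-based competition format, test compound (eleven concentrations, threefold steps) was incubated with kinase and immobilized affinity ligand for 1 hour at room temperature. Kinase retained on beads was released with non-biotinylated ligand and measured by quantitative PCR to give Kd.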
# CSF-1R kinase = target: T2, CSF-1R kinase (Homo sapiens, UniProt P07333); assay: Competition binding assay, CSF-1R Kd
# T2 construct: made in house; host or cells: T7 phage display or HEK-293 cells
# Method in brief: as §1
# KIT kinase = target: T3, KIT kinase (Homo sapiens, UniProt P10721); assay: Competition binding assay, KIT Kd
# T3 construct: made in house; host or cells: T7 phage display or HEK-293 cells
# Method in brief: as §1
# MV4-11 cells = assay: MV4-11 cell proliferation assay (Alamar Blue); format: cell-based; settings: Homo sapiens, MV4-11, 72 h, 3 days incubation
# Method in brief: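 Viability readout: Alamar Blue fluorescence, ex 560/em 590 nm, 3 h after reagent addition, after 3-day exposure of 64,000 MV4-11 cells per well to a 9-point half-log compound series in 0.5% FBS Iscove's. IC50 from duplicate averages, as 50% proliferation inhibition relative to negative control.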
# [1] = target: kinase panel containing either 359 or 386 distinct kinases; assay: Selectivity score S10 from competition binding against a panel of kinases; settings: compounds at 10 μM; for Kinase specificty: S(10)-359 panel: panel of 359 distinct kinases; for Kinase specificty: S(10)-386 panel: panel of 386 distinct kinases
# Method in brief: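 Compounds were tested at 10 μM in competition binding against T7 phage-fused or HEK-293-expressed DNA-tagged kinases with immobilized affinity ligands, 1 h at room temperature. Bound kinase was quantified by qPCR as percent of DMSO control; S10 is the fraction of distinct kinases (mutants excluded) with POC below 10.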
# T2 sequence (P07333 20-972): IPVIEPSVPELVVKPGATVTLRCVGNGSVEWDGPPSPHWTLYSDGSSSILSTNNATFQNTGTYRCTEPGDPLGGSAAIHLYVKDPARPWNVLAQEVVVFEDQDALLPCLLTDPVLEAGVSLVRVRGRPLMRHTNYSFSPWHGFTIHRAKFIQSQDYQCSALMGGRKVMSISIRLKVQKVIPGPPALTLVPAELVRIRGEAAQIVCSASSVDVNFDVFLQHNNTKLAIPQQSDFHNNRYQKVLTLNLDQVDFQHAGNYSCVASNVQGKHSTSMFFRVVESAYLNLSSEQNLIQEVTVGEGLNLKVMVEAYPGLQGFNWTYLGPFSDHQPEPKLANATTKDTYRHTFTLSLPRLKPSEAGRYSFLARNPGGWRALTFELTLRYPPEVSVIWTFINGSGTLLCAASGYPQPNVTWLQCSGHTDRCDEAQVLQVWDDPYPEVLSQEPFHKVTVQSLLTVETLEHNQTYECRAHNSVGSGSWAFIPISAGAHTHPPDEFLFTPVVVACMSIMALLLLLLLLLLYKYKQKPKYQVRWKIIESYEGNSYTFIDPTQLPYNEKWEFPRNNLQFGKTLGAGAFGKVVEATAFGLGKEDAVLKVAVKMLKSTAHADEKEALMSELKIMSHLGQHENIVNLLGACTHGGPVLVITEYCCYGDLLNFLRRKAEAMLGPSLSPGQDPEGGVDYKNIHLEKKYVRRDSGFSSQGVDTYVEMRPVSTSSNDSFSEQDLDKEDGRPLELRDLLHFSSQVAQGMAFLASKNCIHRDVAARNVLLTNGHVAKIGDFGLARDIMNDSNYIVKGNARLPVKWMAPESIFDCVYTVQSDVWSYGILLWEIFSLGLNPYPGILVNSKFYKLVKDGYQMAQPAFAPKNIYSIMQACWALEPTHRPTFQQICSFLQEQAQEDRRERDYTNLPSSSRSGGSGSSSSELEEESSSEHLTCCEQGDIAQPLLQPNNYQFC
# T3 sequence (P10721 26-976): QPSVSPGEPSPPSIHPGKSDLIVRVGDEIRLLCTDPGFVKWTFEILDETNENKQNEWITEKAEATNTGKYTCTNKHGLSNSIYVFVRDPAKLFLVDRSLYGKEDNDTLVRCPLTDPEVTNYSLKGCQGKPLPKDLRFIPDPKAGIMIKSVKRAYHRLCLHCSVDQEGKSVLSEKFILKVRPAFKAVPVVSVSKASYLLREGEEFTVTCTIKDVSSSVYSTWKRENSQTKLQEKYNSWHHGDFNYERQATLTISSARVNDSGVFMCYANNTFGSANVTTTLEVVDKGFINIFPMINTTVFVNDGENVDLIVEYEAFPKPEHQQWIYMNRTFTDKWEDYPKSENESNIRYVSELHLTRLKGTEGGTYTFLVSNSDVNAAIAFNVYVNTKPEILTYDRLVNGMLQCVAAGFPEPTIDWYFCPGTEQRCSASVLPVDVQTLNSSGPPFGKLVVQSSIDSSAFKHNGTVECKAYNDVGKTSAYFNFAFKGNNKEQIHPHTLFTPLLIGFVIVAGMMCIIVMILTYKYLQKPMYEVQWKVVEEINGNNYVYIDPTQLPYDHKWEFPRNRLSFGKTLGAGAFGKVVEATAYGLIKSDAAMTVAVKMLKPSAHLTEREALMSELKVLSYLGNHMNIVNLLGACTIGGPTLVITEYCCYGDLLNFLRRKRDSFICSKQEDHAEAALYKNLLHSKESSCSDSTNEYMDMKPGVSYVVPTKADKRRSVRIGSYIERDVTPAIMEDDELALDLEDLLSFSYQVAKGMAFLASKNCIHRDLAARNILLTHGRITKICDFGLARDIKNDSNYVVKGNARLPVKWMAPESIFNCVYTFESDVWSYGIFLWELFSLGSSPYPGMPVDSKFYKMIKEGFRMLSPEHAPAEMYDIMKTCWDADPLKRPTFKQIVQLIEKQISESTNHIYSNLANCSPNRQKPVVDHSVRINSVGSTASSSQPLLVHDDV
Compound,pKd (FLT3 kinase),pKd (CSF-1R kinase),pKd (KIT kinase),pIC50 (MV4-11 cells),Kinase specificty: S(10)-359 panel [1],Kinase specificty: S(10)-386 panel [1]
"Cc1cc(N)nc(C)c1-c1ccc(NC(=O)Nc2cc(C(C)(C)C)on2)cc1 [Example 10, 1-(4-(6-amino-2,4-dimethylpyridin-3-yl)phenyl)-3-(5-tert-butylisoxazol-3-yl)urea]",8.00 to 9.00,≥ 8.00,8.00 to 9.00,6.30 to 7.00,A (A≦0.1),–
CC(F)(F)C1(c2cc(NC(=O)Cc3ccc(-c4ccc(N)nc4F)cc3)no2)CC1 [Example 159],8.00 to 9.00,≥ 8.00,8.00 to 9.00,≥ 9.00,–,A (A≦0.1)
"CC(C)(C)c1cc(NC(=O)Cc2ccc(-c3ccc(NCCN4CCOCC4)nc3)cc2)no1.CS(=O)(=O)O [Example 105, 5-(4-(2-(5-tert-butylisoxazol-3-ylamino)-2-oxoethyl)phenyl)-N-(2-morpholinoethyl)pyridin-2-aminium methanesulfonate]",≥ 9.00,≥ 8.00,≥ 9.00,8.00 to 9.00,–,B (0.1<B≦0.2 nM)
"CC1(c2cc(NC(=O)Cc3ccc(-c4cnc(N)c(F)c4)cc3)no2)COC1.CS(=O)(=O)O [Example 146, 3-fluoro-5-(4-(2-((5-(3-methyloxetan-3-yl)isoxazol-3-yl)amino)-2-oxoethyl)phenyl)pyridin-2-aminium methanesulfonate]",≥ 9.00,≥ 8.00,≥ 9.00,8.00 to 9.00,–,A (A≦0.1)
"CC(C)(C)Nc1ncc(-c2ccc(NC(=O)Nc3cc(C(C)(C)C)on3)nc2)cn1 [Example 62, 1-(5-(2-(tert-butylamino)pyrimidin-5-yl)pyridin-2-yl)-3-(5-tert-butylisoxazol-3-yl)urea]",8.00 to 9.00,7.00 to 8.00,8.00 to 9.00,6.30 to 7.00,A (A≦0.1),–
"CS(=O)(=O)O.Cc1nc(-c2ccc(CC(=O)Nc3cc(C(C)(C)C)on3)cc2)cnc1N [Example 113, 5-(4-(2-(5-tert-butylisoxazol-3-ylamino)-2-oxoethyl)phenyl)-3-methylpyrazin-2-aminium methanesulfonate]",≥ 9.00,≥ 8.00,8.00 to 9.00,≥ 9.00,–,B (0.1<B≦0.2 nM)

# Next, values leading:
pKd (FLT3 kinase),pKd (CSF-1R kinase),pKd (KIT kinase),pIC50 (MV4-11 cells),Kinase specificty: S(10)-359 panel [1],Kinase specificty: S(10)-386 panel [1],Compound
≥ 9.00,≥ 8.00,≥ 9.00,8.00 to 9.00,–,A (A≦0.1),"CC1(c2cc(NC(=O)Cc3ccc(-c4ccc(N)nc4)cc3)no2)CC1.CS(=O)(=O)O [Example 100, 5-(4-(2-(5-(1-methylcyclopropyl)isoxazol-3-ylamino)-2-oxoethyl)phenyl)pyridin-2-aminium methanesulfonate]"
≥ 9.00,≥ 8.00,≥ 9.00,6.30 to 7.00,A (A≦0.1),–,"Cc1cc(N)ncc1-c1ccc(NC(=O)Nc2cc(C(C)(C)C)on2)nc1 [Example 26, 1-(6′-amino-4′-methyl-3,3′-bipyridin-6-yl)-3-(5-tert-butylisoxazol-3-yl)urea]"
≥ 9.00,≥ 8.00,≥ 9.00,7.00 to 8.00,A (A≦0.1),–,"O=C(Nc1ccc(-c2cnc(NCCN3CCOCC3)nc2)cc1)Nc1cccc(C(F)(F)F)c1 [Example 54, 1-(4-(2-(2-morpholinoethylamino)pyrimidin-5-yl)phenyl)-3-(3-(trifluoromethyl)phenyl)urea]"
≥ 9.00,≥ 8.00,≥ 9.00,≥ 9.00,A (A≦0.1),A (A≦0.1),"CC(C)(C)c1cc(NC(=O)Nc2ccc(-c3ccc(N)nc3)cc2)no1 [Example 1, 1-(4-(6-aminopyridin-3-yl)phenyl)-3-(5-tert-butylisoxazol-3-yl)urea]"
